From PubChem BioAssay (NCI)
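In this assay, cells in 96-well plates receive the compound at five concentrations for 48 hours. Endpoints are linearly interpolated between the surrounding concentrations. The concentration for 50% growth inhibition is given as GI50. Definition used: TGI = concentration required for complete inhibition of growth.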

Key:
Assay in all cases: NCI anticancer screen, dose series, 48 h
NCI-H460 lung = test system: NCI-H460 lung
MDA-MB-435 = test system: MDA-MB-435
DU-145 prostate = test system: DU-145 prostate
NCI-H226 lung = test system: NCI-H226 lung
SNB-19 CNS = test system: SNB-19 CNS
SNB-75 CNS = test system: SNB-75 CNS
OVCAR-5 ovarian = test system: OVCAR-5 ovarian
HCC-2998 colon = test system: HCC-2998 colon
A498 renal = test system: A498 renal

Row | SMILES | TGI (NCI-H460 lung) | TGI (MDA-MB-435) | TGI (DU-145 prostate) | TGI (NCI-H226 lung) | TGI (SNB-19 CNS) | TGI (SNB-75 CNS) | TGI (OVCAR-5 ovarian) | TGI (HCC-2998 colon) | TGI (A498 renal) | GI50 (NCI-H460 lung) | GI50 (HCC-2998 colon) | GI50 (DU-145 prostate) | GI50 (NCI-H226 lung) | GI50 (A498 renal) | GI50 (SNB-19 CNS) | GI50 (SNB-75 CNS) | GI50 (OVCAR-5 ovarian)
1 | O=C1CC(c2ccccc2)S(=O)c2ccccc2N1 (configuration not stated) | > 100 µM | > 100 µM | > 100 µM | > 100 µM | > 100 µM | > 100 µM | > 100 µM | – | – | – | – | – | – | – | – | – | –
2 | CC/C(N)=N\NC(=O)OC(C)(C)C | – | > 100 µM | > 100 µM | > 100 µM | > 100 µM | > 100 µM | > 100 µM | > 100 µM | > 100 µM | – | – | – | – | – | – | – | –
3 | COc1ccc(-c2n/c(=C\c3c(O)[nH]c4ccccc34)cc3c2=Nc2ccccc2-3)cc1 | 3.28 µM | – | 3.31 µM | 36.2 µM | 3.79 µM | 21.1 µM | 20.4 µM | 3.07 µM | 13.2 µM | 1680 nM | 1520 nM | 1610 nM | 15.1 µM | 2420 nM | 1630 nM | 2070 nM | 5.63 µM
4 | CCCCC[C@H]1CCCCCCCCCC(=O)OC2C(O[C@@H]3OC(C)[C@H](OC(=O)[C@@H](C)CC)C(O[C@@H]4OC(C)[C@H](O)C(O)[C@@H]4O)[C@@H]3OC(=O)[C@H](C)CC)[C@H](OC3C(O)[C@@H](O)C(C)O[C@H]3O1)OC(CO)[C@H]2O (some centres not stated) | 32.5 µM | – | 30 µM | – | 32.1 µM | – | 30.6 µM | 31.8 µM | – | – | – | – | – | – | – | – | –
5 | CN(C)/C=C/C=C(/C=N/S(=O)(=O)C(F)(F)F)C1C=CN(S(=O)(=O)C(F)(F)F)C=C1 | > 100 µM | 73.5 µM | > 100 µM | 67.3 µM | – | 50.6 µM | 91.7 µM | 78.5 µM | 88.8 µM | – | – | – | – | – | – | – | –
6 | CC1C2(C)OCC(C#N)(C(=N)O2)C1(C#N)C#N (configuration not stated) | 42.2 µM | > 100 µM | 74.3 µM | > 100 µM | > 100 µM | > 100 µM | 85.6 µM | – | > 100 µM | – | – | – | – | – | – | – | –
7 | COC(=O)C(NC(=O)OC(C)(C)C)P(=O)(OC)OC (configuration not stated) | – | > 100 µM | > 100 µM | > 100 µM | > 100 µM | – | > 100 µM | – | > 100 µM | – | – | – | – | – | – | – | –
8 | CCOC(=O)C(C/C=C/CO)N(C)C(=O)OC(C)(C)C (configuration not stated) | > 100 µM | – | > 100 µM | > 100 µM | > 100 µM | > 100 µM | > 100 µM | – | > 100 µM | – | – | – | – | – | – | – | –
9 | CCn1c2ccccc2c2cc(Nc3cc(C)[nH]c(=O)n3)ccc21 | > 100 µM | > 100 µM | > 100 µM | – | > 100 µM | – | > 100 µM | > 100 µM | > 100 µM | – | – | – | – | – | – | – | –
10 | COc1cc(/C=N/NC2=NCCN2)ccc1O | > 100 µM | > 100 µM | > 100 µM | > 100 µM | > 100 µM | > 100 µM | > 100 µM | > 100 µM | – | – | – | – | – | – | – | – | –
11 | Cc1ccc(S[C@@H](C)[C@@](O)(C(N)=O)c2ccccc2)cc1 | > 100 µM | > 100 µM | > 100 µM | > 100 µM | > 100 µM | > 100 µM | > 100 µM | > 100 µM | – | – | – | – | – | – | – | – | –
12 | CC(C)C(NC(=O)C(Cc1ccccc1)NC(=O)[C@H]1CCC[C@H]1NC(=O)C(Cc1ccc(OC(C)(C)C)cc1)NC(=O)OC(C)(C)C)C(N)=O (some centres not stated) | 38.8 µM | 34.3 µM | > 100 µM | 37.8 µM | – | 29.2 µM | 36.2 µM | 30.5 µM | 27.6 µM | – | – | – | – | – | – | – | –
13 | COC1CC(OC2C(C)OC(OC3C(C)OC(OC4C(C)OC(O[C@H]5CC[C@@]6(C)C(=CC[C@]7(O)[C@@H]6C[C@@H](O)[C@@]6(C)[C@]7(O)CC[C@@]6(O)C(C)=O)C5)CC4OC)CC3OC)CC2OC)OC(C)C1O (some centres not stated) | – | > 12.5 µM | > 12.5 µM | > 12.5 µM | > 12.5 µM | > 12.5 µM | > 12.5 µM | > 12.5 µM | – | – | – | – | – | – | – | – | –
14 | Clc1cc2nnn(C3CCCO3)c2cc1Cl (configuration not stated) | > 100 µM | > 100 µM | > 100 µM | > 100 µM | – | > 100 µM | > 100 µM | > 100 µM | > 100 µM | – | – | – | – | – | – | – | –
15 | Cc1ccc(/C=C2\N=C(N3CCCC(CO)C3)NC2=O)cc1 (configuration not stated) | – | > 100 µM | > 100 µM | > 100 µM | > 100 µM | > 100 µM | > 100 µM | > 100 µM | – | – | – | – | – | – | – | – | –
16 | O=[N+]([O-])/C(C(Cl)=C(Cl)Cl)=C(/Nc1ccccc1)Sc1ccccc1 | 41.6 µM | 33.9 µM | 41.4 µM | 40.1 µM | 34.3 µM | – | – | 32.8 µM | 38.3 µM | – | – | – | – | – | – | – | –
17 | CC(C)c1ccc(/C=C2\CSCC3=C2N=C2SCC(=O)N2C3c2ccc(C(C)C)cc2)cc1 (configuration not stated) | > 100 µM | > 100 µM | > 100 µM | > 100 µM | – | > 100 µM | > 100 µM | > 100 µM | – | – | – | – | – | – | – | – | –
18 | CC(=O)OCC1OC(n2c(-c3ccccc3)c(N=Nc3ccc(C)cc3)c(C)c(C#N)c2=S)C(OC(C)=O)C(OC(C)=O)C1OC(C)=O (configuration not stated) | > 100 µM | 36.6 µM | > 100 µM | – | 54.5 µM | – | 51.6 µM | > 100 µM | 18.4 µM | – | – | – | – | – | – | – | –
19 | O=C(Nc1ccc(Cl)cc1)c1cc(S(=O)(=O)Nc2n[nH]c(=O)n2-c2ccccc2)c(S)cc1Cl | > 100 µM | > 100 µM | > 100 µM | > 100 µM | > 100 µM | – | > 100 µM | > 100 µM | > 100 µM | – | – | – | – | – | – | – | –
20 | CCOC(=O)C(C(=O)COC(C)(C)C)[C@@H]1C=C[C@H](OC(C)=O)C1 (some centres not stated) | > 100 µM | > 100 µM | – | > 100 µM | > 100 µM | > 100 µM | > 100 µM | > 100 µM | > 100 µM | – | – | – | – | – | – | – | –
21 | CN1CCC2(CC1)C(=NC1CCCCC1)NC(=O)N2c1ccccc1 | > 100 µM | – | > 100 µM | > 100 µM | > 100 µM | > 100 µM | > 100 µM | > 100 µM | > 100 µM | – | – | – | – | – | – | – | –
22 | C(#Cc1ccccc1)SC1=C(c2ccccc2)S/C(=C(\SC#Cc2ccccc2)c2ccccc2)S1 | > 100 µM | > 100 µM | > 100 µM | > 100 µM | > 100 µM | > 100 µM | > 100 µM | > 100 µM | – | – | – | – | – | – | – | – | –
23 | CCCCCCCCCCCCOP(=O)(O)OP(=O)(O)OCC1OC(n2cc(C)c(=O)[nH]c2=O)CC1O (configuration not stated) | > 100 µM | > 100 µM | – | > 100 µM | > 100 µM | > 100 µM | > 100 µM | > 100 µM | > 100 µM | – | – | – | – | – | – | – | –
24 | Cc1ccc(/C=C2/N=C(N/N=C\c3ccccc3)NC2=O)cc1 | > 100 µM | 69.7 µM | > 100 µM | > 100 µM | 90.5 µM | > 100 µM | > 100 µM | 72.1 µM | – | – | – | – | – | – | – | – | –
